Series [1] relates to insulin receptor, Akt and ERK phosphorylation. The series is described as follows: Insulin signalling by western blotting in liver and muscle. It counts as in vivo, mouse. The following applies: 50 mg kg^−1 ip, after insulin injection. The procedure:
Liver and muscle were homogenized in a lysis buffer (1% triton, 0.5 % deoxycholate, 10 mM Na pyruvate, 2 mM Na Vanadate, 100 mM NaF) supplemented with the proteases inhibiteurs cocktails) and the resulting homogenate clarified by centrifugation. Proteins expression and phosphorylation were evaluated by western blot analysis. The signals were detected with a Pierce ECL western blotting substrate (Thermo scientific), according the manufacturer instructions. Primary antibodies were diluted at 1/1,000 and incubated overnight in PBS 0.1% Tween 20, 5% milk.
Background: Immunoblotting shows a protein as a band on a membrane.

Series [2] in a line: Stability in human plasma. The format is in vitro ADME. The note with it: both sexes, read-out: Plasma stability h (t1/2). How it is done: Incubations were performed in duplicate in Eppendorf tubes. The plasma (mouse plasma, rat plasma (mixed gender), human (mixed gender, all lithium heparine, from Sera Laboratories International) or cell culture medium (differenciation medium: DMEM (Life Technologies, Ref 41965), 0.4 % gentamicine, 10 % FCS (Lonza, Ref DE14-801F) or proliferation medium: DMEM (Life Technologies, Ref 41965), 0.4 % gentamicine, 2 % horse serum (Gbco, Ref16050) was pre-incubated 5 min at 37 °C before the addition of test compounds to a final concentration of 10 μM (1% DMSO maximum). At the defined time points, 50 μl from each tube were removed to another tube containing 450 μl of cold CH3CN+ internal standard (1 μM). After centrifugation (10 min at 10,000 r.p.m.), supernatants are analysed. The degradation half-life (t1/2) values were calculated as t1/2=0.693/k where k is the first-order degradation rate constant. The degradation rate constant (k) was estimated by one-phase exponential decay nonlinear regression analysis of the degradation time course data using Xlfit software (version 2.1.2 or higher) from IDBS.Ltd.

In series [3] the target is T1, Recombinant human MMP-1 (Homo sapiens, UniProt P03956).
T1 construct: host or cells: E. coli
T1 sequence (P03956 100-469): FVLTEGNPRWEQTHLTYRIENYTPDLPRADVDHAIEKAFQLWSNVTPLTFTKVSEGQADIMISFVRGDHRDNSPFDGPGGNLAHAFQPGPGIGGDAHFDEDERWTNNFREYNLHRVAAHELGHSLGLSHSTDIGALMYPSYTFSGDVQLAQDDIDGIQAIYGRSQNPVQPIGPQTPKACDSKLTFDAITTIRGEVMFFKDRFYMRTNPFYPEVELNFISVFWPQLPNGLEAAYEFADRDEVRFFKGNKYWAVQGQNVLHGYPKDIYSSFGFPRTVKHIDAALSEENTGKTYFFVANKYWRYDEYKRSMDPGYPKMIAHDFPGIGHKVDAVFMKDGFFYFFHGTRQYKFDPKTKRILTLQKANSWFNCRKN
The series is described as follows: Matrix metalloprotease 1 inhibition (CEREP). It counts as biochemical. The note with it: means of two experiments minimum, s.d.±10%; read-out: Selectivity IC50 hMMP-1. How it is done: (§1) Briefly, human NEP (R&D Systems; 200 ng ml^−1) was incubated 10 min at room temperature with compound in Hepes 50 mM, NaCl 100 mM, pH 7.4 and the enzymatic reaction started by adding the substrate (final concentration 200 μM). […] Briefly, human ACE (R&D Systems) was incubated 10 min at room temperature with compound in Tris 50 mM 1% NaCl pH 7.4 and the enzymatic reaction is started by adding the substrate (final concentration 300 μM). […] In vitro activity was assayed at CEREP.SA as follows.

The target in series [4] is T2, recombinant human ECE-1 (Homo sapiens, UniProt P42892).
T2 construct: host or cells: NSO cells
T2 sequence (P42892 1-770): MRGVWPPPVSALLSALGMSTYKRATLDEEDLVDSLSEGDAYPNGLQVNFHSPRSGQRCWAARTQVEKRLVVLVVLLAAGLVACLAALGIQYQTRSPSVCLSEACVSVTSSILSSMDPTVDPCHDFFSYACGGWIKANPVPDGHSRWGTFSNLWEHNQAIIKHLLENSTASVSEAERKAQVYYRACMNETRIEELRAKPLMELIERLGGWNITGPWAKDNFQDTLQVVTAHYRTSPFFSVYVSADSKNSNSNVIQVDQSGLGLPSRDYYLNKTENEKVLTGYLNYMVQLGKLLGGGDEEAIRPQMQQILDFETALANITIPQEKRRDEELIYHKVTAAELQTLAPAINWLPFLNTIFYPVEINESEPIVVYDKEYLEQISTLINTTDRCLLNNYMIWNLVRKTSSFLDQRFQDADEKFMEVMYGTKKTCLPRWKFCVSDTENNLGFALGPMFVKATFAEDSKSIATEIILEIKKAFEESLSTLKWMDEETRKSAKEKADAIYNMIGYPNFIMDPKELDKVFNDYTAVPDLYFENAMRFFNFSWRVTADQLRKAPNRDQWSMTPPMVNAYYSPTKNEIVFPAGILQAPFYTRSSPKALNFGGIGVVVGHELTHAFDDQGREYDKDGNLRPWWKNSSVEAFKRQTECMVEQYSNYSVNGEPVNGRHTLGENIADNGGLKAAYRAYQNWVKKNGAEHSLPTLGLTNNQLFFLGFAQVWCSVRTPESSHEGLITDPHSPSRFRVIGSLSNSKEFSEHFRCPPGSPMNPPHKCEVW
Kind of series: Endothelin-converting enzyme inhibition (CEREP). It counts as biochemical. The following applies: means of two experiments minimum, s.d.±10%; read-out: Selectivity IC50 hECE.

Series [5] deals with T3, human ACE (Homo sapiens, UniProt P12821).
T3 construct: purchased R&D Systems
T3 sequence (P12821 30-1306): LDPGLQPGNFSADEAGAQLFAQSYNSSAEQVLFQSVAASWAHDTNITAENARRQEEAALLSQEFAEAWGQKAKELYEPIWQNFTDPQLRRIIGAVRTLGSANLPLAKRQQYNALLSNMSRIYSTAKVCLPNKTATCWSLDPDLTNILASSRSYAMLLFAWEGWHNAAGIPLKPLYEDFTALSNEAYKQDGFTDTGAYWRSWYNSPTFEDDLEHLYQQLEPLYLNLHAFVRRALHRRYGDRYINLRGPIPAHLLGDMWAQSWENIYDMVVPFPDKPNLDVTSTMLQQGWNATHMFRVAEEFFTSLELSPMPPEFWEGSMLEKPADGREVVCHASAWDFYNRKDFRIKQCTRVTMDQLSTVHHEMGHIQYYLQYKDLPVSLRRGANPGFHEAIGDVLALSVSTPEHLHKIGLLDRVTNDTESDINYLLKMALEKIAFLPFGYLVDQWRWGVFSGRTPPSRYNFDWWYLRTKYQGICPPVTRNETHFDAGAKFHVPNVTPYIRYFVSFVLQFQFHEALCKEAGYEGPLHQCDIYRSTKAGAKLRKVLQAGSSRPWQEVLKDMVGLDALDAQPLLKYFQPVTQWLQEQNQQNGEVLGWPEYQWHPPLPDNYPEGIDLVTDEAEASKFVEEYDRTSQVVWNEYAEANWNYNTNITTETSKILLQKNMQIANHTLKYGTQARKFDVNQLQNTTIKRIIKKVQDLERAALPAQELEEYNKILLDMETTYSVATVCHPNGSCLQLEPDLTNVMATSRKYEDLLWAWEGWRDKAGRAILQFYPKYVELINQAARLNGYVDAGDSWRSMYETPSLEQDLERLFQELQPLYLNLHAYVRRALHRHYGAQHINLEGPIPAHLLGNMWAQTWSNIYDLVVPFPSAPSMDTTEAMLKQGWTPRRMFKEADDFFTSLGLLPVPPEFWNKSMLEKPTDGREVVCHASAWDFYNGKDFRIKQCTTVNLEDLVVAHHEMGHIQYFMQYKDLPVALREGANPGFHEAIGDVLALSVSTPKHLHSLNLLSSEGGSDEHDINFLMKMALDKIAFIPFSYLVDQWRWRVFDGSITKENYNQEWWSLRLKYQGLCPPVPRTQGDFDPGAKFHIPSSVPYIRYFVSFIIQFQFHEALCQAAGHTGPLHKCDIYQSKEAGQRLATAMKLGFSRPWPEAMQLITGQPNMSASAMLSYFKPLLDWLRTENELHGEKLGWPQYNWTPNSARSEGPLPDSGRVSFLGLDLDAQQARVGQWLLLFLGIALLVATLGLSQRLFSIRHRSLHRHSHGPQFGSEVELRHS
Kind of series: ACE selectivity assay. The format is biochemical. The note with it: >10 μM stands for <10% at 10 μM; read-out: Selectivity IC50 hACE. The procedure:
as §1

The target of series [6] is T4, human NEP (Homo sapiens, UniProt P08473).
T4 construct: purchased R&D Systems
T4 sequence (P08473 whole entry): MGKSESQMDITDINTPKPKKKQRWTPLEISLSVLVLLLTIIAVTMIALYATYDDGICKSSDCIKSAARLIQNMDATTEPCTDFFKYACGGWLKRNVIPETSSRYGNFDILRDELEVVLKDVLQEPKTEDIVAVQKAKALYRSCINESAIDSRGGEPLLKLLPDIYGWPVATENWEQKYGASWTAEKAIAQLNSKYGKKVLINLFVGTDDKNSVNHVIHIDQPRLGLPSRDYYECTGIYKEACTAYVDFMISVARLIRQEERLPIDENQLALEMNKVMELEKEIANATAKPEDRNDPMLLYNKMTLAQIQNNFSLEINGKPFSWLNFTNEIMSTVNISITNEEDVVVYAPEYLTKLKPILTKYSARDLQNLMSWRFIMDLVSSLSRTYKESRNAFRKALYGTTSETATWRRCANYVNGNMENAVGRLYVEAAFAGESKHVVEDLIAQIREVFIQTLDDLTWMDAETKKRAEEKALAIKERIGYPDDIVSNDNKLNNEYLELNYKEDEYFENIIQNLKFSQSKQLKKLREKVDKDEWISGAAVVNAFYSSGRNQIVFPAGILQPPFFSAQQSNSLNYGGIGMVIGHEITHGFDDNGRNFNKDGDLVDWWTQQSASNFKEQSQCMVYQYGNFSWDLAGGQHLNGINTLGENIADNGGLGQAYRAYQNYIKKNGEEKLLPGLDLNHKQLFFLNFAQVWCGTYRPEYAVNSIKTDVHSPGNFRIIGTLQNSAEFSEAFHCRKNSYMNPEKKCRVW
Kind of series: Neutral endopeptidase (NEP) selectivity assay. The format is biochemical. The note with it: means of two experiments minimum, s.d.±10%; read-out: Selectivity IC50 hNEP. How it is done:
as §1

Structures are written as SMILES. pIC50: −log10 of the molar value. “Also recorded” adds a separate entry of the source.

One may read the pIC50 as the IC50 on a negative log10 scale, so that one unit is a factor of ten. On to `O=C(C[C@@H](Cc1ccc2ccccc2c1)n1cc(CNC(=O)c2ccc(F)cc2)nn1)NO` [Compound 1], for which, in series [1], the “insulin signalling: phosphorylation of insulin receptor, Akt and ERK in liver and muscle” value is given as “Increase insulin signaling; also recorded: increased the phosphorylation”. For the same compound, in series [2], the half-life at 10 μM was greater than 24 h. Also, the pIC50 in series [3] was 5.00; in series [4], 5.19; in series [5], less than 5.00; in series [6] it was 5.59.

(Values after publication PMC4580987, “Catalytic site inhibition of insulin-degrading enzyme by a small molecule induces glucose intolerance in mice” (Nature Communications, 2015).)
